ChEMBL document CHEMBL5126529, “Drug discovery of histone lysine demethylases (KDMs) inhibitors (progress from 2018 to present)” (Eur J Med Chem, 2022)

Key:
MAO-B [1] = target: T1, MAO-B (Homo sapiens, UniProt P27338); assay: Inhibition of MAO-B (unknown origin) at 100 uM relative to control
T1 sequence (P27338 whole entry): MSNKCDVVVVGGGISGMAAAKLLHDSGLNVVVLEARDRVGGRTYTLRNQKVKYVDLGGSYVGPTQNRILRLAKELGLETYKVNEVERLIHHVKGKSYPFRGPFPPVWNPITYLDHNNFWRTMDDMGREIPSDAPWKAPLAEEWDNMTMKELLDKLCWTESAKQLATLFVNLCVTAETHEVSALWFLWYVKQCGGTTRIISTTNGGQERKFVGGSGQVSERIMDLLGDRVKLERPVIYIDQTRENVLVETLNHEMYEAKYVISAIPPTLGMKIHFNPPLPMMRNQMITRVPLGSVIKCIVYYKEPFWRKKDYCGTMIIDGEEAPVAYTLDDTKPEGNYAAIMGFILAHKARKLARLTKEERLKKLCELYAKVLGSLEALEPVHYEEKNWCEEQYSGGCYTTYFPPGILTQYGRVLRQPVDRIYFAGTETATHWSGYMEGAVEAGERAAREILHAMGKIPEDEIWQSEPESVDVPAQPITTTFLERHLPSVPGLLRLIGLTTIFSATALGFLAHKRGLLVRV

MAO-A [2] = target: T2, MAO-A (Homo sapiens, UniProt P21397); assay: Inhibition of MAO-A (unknown origin) at 100 uM relative to control
T2 sequence (P21397 whole entry): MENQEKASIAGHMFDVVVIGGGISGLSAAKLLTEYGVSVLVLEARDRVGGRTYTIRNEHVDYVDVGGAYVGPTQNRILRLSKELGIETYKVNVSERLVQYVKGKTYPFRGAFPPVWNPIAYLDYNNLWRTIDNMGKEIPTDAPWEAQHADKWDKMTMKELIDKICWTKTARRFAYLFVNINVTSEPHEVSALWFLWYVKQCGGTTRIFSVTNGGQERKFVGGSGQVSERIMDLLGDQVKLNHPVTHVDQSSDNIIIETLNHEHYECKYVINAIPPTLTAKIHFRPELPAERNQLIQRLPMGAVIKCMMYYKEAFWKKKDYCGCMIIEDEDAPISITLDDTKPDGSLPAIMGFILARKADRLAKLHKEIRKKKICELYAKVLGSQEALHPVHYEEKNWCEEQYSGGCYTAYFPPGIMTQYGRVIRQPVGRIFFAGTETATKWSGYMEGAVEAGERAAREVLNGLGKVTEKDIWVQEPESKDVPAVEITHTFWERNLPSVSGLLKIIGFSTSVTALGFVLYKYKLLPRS

[3] = target: T3, Lysine-specific histone demethylase 1A (Homo sapiens, UniProt O60341)
MAO-B [4] = target: T1, MAO-B; assay: Inhibition of MAO-B (unknown origin) at 10 uM relative to control
MAO-A [5] = target: T2, MAO-A; assay: Inhibition of MAO-A (unknown origin) at 10 uM relative to control
[6] = target: Lysine-specific demethylase 5C (Homo sapiens, UniProt P41229); assay: Inhibition of N-terminal FLAG/His-tagged full-length human KDM5C (2 to 1560 residues) expressed in baculovirus infected Sf9 insect cells using peptide substrate at 10 uM incubated for 2 hrs by Alpha Screen assay relative to control
[7] = target: Lysine-specific demethylase 3B (Homo sapiens, UniProt Q7LBC6); assay: Binding affinity to CM7 sensor chip immobilized full-length KDM3B (unknown origin) expressed in Sf9 insect cells assessed as dissociation constant incubated for 60 secs by SPR analysis
Sequence of Lysine-specific demethylase 3B (Q7LBC6 whole entry, the tested form may be a part): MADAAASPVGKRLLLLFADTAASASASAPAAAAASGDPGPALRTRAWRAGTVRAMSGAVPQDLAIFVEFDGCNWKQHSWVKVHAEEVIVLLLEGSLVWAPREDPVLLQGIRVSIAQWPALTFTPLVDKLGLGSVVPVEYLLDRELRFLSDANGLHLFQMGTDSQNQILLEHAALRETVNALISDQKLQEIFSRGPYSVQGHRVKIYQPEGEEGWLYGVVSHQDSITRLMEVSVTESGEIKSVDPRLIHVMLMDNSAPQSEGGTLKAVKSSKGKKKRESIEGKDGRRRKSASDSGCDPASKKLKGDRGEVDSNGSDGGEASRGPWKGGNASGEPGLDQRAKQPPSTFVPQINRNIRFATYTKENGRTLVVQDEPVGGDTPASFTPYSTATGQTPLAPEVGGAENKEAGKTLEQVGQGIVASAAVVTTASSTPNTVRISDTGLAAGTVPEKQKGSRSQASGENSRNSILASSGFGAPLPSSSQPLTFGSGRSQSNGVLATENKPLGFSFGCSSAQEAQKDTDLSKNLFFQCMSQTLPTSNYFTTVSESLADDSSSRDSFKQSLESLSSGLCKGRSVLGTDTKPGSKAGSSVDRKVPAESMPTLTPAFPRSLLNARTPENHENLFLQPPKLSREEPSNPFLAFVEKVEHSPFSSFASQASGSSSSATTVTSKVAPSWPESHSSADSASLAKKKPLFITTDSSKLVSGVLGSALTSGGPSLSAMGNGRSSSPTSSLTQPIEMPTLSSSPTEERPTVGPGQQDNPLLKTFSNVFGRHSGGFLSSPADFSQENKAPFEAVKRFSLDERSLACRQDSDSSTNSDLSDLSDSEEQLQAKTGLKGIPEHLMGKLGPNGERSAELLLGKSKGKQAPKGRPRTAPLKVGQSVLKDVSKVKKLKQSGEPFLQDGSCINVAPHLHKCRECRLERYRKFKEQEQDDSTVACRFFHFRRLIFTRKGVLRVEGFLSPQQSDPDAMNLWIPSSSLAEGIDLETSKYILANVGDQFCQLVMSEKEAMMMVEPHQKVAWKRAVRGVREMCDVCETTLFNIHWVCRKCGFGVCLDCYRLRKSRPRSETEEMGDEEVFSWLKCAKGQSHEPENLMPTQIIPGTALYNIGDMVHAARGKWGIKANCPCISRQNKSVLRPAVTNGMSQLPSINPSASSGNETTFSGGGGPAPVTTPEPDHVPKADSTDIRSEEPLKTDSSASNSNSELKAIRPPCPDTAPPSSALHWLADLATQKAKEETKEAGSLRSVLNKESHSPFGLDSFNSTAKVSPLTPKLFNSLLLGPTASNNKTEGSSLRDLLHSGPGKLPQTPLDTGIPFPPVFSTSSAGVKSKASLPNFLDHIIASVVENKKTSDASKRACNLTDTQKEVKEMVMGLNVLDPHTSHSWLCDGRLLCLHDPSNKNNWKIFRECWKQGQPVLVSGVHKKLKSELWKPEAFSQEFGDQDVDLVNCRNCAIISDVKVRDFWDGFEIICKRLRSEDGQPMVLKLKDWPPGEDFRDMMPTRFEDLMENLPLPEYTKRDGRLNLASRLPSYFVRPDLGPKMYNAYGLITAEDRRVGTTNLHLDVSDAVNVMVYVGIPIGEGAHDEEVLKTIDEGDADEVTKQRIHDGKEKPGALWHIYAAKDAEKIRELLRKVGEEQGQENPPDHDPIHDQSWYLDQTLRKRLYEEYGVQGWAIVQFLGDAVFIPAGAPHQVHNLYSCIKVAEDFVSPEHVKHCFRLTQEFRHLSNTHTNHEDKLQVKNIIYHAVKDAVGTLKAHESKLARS

[8] = target: Probable JmjC domain-containing histone demethylation protein 2C (Homo sapiens, UniProt Q15652); assay: Binding affinity to CM7 sensor chip immobilized partial-length JMJD1C (2274 to 2498 residues) (unknown origin) expressed in Escherichia coli assessed as dissociation constant incubated for 60 secs by SPR analysis
Sequence of Probable JmjC domain-containing histone demethylation protein 2C (Q15652 whole entry, the tested form may be a part): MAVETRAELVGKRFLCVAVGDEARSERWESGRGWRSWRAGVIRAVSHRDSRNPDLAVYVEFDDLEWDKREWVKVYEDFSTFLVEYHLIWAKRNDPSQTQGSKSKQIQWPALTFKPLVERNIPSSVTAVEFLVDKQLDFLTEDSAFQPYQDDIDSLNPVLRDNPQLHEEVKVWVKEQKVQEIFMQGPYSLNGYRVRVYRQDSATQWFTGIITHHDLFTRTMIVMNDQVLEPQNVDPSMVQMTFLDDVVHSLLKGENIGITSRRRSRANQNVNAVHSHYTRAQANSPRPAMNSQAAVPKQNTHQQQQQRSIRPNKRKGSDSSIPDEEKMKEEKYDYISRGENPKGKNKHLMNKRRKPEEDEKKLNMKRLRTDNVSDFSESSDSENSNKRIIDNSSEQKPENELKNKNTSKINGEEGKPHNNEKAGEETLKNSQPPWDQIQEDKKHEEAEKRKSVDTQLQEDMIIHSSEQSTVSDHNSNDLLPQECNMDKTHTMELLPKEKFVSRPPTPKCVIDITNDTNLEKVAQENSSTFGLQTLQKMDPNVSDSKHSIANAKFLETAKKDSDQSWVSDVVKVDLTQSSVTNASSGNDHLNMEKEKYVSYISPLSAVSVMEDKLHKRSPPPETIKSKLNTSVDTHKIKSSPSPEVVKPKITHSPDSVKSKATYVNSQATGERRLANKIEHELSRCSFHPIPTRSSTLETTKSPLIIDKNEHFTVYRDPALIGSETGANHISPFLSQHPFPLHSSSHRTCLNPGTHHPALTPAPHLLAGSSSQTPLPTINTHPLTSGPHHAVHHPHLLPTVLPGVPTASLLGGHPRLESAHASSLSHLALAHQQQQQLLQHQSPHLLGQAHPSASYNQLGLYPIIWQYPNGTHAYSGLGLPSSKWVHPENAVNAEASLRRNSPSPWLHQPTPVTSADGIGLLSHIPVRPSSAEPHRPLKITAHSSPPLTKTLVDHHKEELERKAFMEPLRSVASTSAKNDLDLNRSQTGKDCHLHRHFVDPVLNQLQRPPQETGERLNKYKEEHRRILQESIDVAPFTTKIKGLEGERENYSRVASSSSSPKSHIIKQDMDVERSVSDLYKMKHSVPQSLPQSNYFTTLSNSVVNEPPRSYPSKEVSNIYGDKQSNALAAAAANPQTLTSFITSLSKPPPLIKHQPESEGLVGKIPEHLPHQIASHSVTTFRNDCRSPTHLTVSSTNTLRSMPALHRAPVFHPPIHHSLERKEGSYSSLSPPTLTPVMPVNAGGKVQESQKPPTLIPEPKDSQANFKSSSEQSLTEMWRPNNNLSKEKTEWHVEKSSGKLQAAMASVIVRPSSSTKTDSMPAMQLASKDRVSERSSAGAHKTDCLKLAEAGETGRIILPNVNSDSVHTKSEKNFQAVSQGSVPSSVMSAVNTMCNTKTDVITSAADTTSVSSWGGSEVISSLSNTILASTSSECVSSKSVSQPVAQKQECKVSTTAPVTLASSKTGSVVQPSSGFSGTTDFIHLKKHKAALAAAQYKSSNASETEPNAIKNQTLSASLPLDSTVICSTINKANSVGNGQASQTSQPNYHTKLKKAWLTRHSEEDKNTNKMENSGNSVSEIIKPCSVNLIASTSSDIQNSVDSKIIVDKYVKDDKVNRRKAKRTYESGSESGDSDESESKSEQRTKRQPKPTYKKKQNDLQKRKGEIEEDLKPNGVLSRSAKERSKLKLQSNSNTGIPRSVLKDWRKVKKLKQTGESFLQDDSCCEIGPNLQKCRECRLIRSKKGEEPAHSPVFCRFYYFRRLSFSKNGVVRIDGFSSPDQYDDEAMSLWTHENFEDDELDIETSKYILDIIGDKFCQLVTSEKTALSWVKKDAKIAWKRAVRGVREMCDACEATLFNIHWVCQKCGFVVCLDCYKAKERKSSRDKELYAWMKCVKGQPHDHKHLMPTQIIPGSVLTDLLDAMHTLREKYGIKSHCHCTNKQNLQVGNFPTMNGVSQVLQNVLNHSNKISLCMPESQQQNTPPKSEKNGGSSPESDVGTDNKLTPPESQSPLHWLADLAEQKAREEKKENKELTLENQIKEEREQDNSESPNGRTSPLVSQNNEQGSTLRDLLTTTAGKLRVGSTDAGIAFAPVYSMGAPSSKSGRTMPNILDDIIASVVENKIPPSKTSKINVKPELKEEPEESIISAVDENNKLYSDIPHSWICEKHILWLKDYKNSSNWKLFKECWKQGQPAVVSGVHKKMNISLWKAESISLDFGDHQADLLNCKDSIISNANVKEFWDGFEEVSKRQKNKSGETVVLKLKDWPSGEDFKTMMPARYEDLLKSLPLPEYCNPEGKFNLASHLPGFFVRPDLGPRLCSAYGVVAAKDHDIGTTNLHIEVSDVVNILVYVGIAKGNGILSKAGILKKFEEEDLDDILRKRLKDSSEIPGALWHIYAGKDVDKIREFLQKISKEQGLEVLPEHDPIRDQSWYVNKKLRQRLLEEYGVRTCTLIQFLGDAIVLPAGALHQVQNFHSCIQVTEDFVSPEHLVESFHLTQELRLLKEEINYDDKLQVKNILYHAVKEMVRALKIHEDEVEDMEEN

[9] = target: T3, Lysine-specific histone demethylase 1A; assay: Inhibition of KDM1A (unknown origin) by fluorescence based assay
MAO-B [10] = target: T1, MAO-B; assay: Inhibition of recombinant MAO-B (unknown origin) using luciferin substrate at 100 uM preincubated for 15 mins followed by substrate addition measured after 1 hr by luciferase based assay relative to control; conditions: probe luciferin substrate, time 75 min
MAO-A [11] = target: T2, MAO-A; assay: Inhibition of recombinant MAO-A (unknown origin) using luciferin substrate at 100 uM preincubated for 15 mins followed by substrate addition measured after 1 hr by luciferase based assay relative to control; conditions: probe luciferin substrate, time 75 min
[12] = target: Lysine-specific demethylase 4A (Homo sapiens) (UniProt O75164); assay: Inhibition of recombinant KDM4A (unknown origin) assessed as residual activity using H3K9me3 peptide as substrate incubated for 60 mins by fluorescence based assay relative to control
MAO-B [13] = target: T1, MAO-B; assay: Inhibition of recombinant MAO-B (unknown origin) at 10 uM by luminometry relative to control
MAO-A [14] = target: T2, MAO-A; assay: Inhibition of recombinant MAO-A (unknown origin) at 10 uM by luminometry relative to control
[15] = target: T3, Lysine-specific histone demethylase 1A; assay: Inhibition of recombinant human KDM1A (158 to 852 residues) using H3K4Me2 peptide as substrate preincubated for 15 mins followed by substrate addition measured after 60 mins by AlphaLISA assay
[16] = target: T3, Lysine-specific histone demethylase 1A; assay: Inhibition of recombinant human KDM1A using fluorogenic substrate incubated for 30 mins followed by substrate addition measured after 10 mins by fluorescence based assay
MAO-A [17] = target: T2, MAO-A; assay: Inhibition of recombinant MAO-A (unknown origin) using luciferin substrate at 10 uM preincubated for 15 mins followed by substrate addition measured after 1 hr by luciferase based assay relative to control; conditions: probe luciferin substrate, time 75 min
MAO-B [18] = target: T1, MAO-B; assay: Inhibition of recombinant MAO-B (unknown origin) using luciferin substrate at 10 uM preincubated for 15 mins followed by substrate addition measured after 1 hr by luciferase based assay relative to control; conditions: probe luciferin substrate, time 75 min
[19] = target: T4, Amine oxidase [flavin-containing] B (Homo sapiens, UniProt P27338)
T4 sequence (P27338 whole entry): T1 sequence (P27338 whole entry)

[20] = target: Lysine-specific demethylase 6B (Homo sapiens, UniProt O15054); assay: Binding affinity to KDM6B (unknown origin) assessed as inhibition constant
[21] = target: T3, Lysine-specific histone demethylase 1A; remark: listed apart in the source
KE-37 = assay: cells; conditions: Homo sapiens
HAL-01 = assay: cells; conditions: Homo sapiens
MOLT-4 = assay: cells; conditions: Homo sapiens
P30-OHK = assay: cells; conditions: Homo sapiens
[22] = target: T5, Amine oxidase [flavin-containing] A (Homo sapiens, UniProt P21397); assay: Inhibition of MAO-A (unknown origin) by luminometry
T5 sequence (P21397 whole entry): T2 sequence (P21397 whole entry)

LC4-1 = assay: cells; conditions: Homo sapiens
SUP-B15 = assay: cells; conditions: Homo sapiens
[23] = target: T4, Amine oxidase [flavin-containing] B; assay: Inhibition of MAO-B (unknown origin) by luminescence based assay
[24] = target: T3, Lysine-specific histone demethylase 1A; assay: Inhibition of recombinant human KMD1A (172 to 852 residues) using Bio-H3K4me2 peptide as substrate incubated for 1 hr by Lance ultra TR-FRET assay
[25] = target: T5, Amine oxidase [flavin-containing] A; assay: Inhibition of MAO-A (unknown origin) by luminescence based assay
[26] = target: T4, Amine oxidase [flavin-containing] B; assay: Binding affinity to human MAO-B assessed as inhibition constant using tyramine as substrate incubated for 30 mins by enzymatic assay
[27] = target: T3, Lysine-specific histone demethylase 1A; assay: Binding affinity to human KDM1A (172 to 833 residues) assessed as inhibition constant using Lys4-dimethylated H3 peptide as substrate incubated for 30 mins by enzymatic assay
[28] = target: Lysine-specific histone demethylase 2 (Homo sapiens, UniProt Q8NB78); assay: Binding affinity to KDM1B (unknown origin) assessed as inhibition constant using Lys4-dimethylated H3 peptide as substrate incubated for 30 mins by enzymatic assay
Sequence of Lysine-specific histone demethylase 2 (Q8NB78 whole entry): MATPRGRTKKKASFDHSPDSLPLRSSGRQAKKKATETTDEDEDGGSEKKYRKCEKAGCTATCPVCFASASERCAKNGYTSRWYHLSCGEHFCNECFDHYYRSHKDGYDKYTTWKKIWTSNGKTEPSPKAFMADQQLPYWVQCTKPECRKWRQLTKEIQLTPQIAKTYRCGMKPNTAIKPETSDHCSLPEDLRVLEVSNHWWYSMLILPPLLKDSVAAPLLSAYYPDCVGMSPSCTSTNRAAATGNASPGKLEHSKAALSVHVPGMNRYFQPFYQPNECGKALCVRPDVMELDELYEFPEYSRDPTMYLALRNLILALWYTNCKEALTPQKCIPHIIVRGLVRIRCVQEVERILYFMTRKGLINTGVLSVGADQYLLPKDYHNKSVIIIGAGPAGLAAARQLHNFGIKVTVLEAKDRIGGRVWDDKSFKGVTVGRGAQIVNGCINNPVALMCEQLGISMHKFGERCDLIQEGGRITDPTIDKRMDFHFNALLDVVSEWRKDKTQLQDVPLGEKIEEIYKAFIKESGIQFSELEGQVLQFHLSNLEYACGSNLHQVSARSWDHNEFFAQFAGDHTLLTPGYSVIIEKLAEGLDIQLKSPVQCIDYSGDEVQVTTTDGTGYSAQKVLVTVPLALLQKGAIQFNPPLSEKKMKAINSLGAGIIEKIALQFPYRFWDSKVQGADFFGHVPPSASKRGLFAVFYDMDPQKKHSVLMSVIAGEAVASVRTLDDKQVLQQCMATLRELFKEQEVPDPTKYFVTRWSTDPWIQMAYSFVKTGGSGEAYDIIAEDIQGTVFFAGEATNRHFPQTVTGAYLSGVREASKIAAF

[29] = target: T5, Amine oxidase [flavin-containing] A; assay: Binding affinity to human MAO-A assessed as inhibition constant using tyramine as substrate incubated for 30 mins by enzymatic assay

NC1CC1c1ccc(NC(=O)c2ccc(-c3ccccc3)cc2)cc1 (centres undefined)
inhibition at 100 µM (MAO-B [1]): 8% | inhibition at 100 µM (MAO-A [2]): 2% | IC50 [3]: 0.051 µM

COc1ccc(-c2coc3cc(O)cc(O)c3c2=O)cc1 [BIOCHANIN]
inhibition at 10 µM (MAO-B [4]): 36.8% | inhibition at 10 µM (MAO-A [5]): 23.5%

COC(=O)c1ccnc(-c2cn(CCN(C)CCCCCCCCCCOc3cccc4c3C(=O)N(C3CCC(=O)NC3=O)C4=O)nn2)c1 (centres undefined)
inhibition [6]: 14%

CC(=O)Nc1ccc(S(=O)(=O)N[C@H]2CO[C@H]3[C@@H]2OC[C@@H]3Nc2nccc(-c3cccc(C(C)(C)C)c3)n2)cc1
Kd [7]: 7.79 µM | Kd [8]: 8.06 µM

C=C[C@]1(C)C[C@@H]2OC(=O)C(C)=C2C[C@H]1C(=C)C [ISOGERMAFURENOLIDE]
IC50 [9]: 3.97 µM

Cc1ccc(-c2nc(SCc3cn(CC(=O)NC(=O)Nc4ccccn4)nn3)nc(Nc3cccc(C(F)(F)F)c3)c2C#N)cc1
inhibition at 1 h, 100 µM (MAO-B [10]): < 5% | inhibition at 1 h, 100 µM (MAO-A [11]): < 5%

CC(C)(C)OC(=O)NCc1cc2ccccc2[te]1
Activity [12]: 1.79%

CC(=O)Nc1ccc(S(=O)(=O)N[C@H]2CO[C@H]3[C@@H]2OC[C@@H]3Nc2nccc(-c3ccccc3)n2)cc1
Kd [7]: 0.13 µM | Kd [8]: 2.7 µM

COc1cc2c(cc1OC)-c1cc3ccc4c(c3c[n+]1CC2)OCO4
inhibition at 10 µM (MAO-B [13]): 40% | inhibition at 10 µM (MAO-A [14]): 70%

O=C(/C=C/c1ccc(O)c2c1[C@H](C(=O)OC(Cc1ccc(O)c(O)c1)C(=O)O)[C@@H](c1ccc(O)c(O)c1)O2)O[C@H](Cc1ccc(O)c(O)c1)C(=O)O (some centres undefined)
IC50 [9]: 0.11 µM

COCc1cccc(NC(=O)c2cc3ccccc3n2C)c1COc1ccc(OCC2CCNCC2)cc1
IC50 [15]: 4 µM

Cn1c(C(=O)Nc2cccc3c2N(Cc2ccc(OC4CCNCC4)cc2)CCC3)cc2ccccc21
IC50 [16]: 0.05 µM

Oc1ccc(CC2NCCc3cc(O)c(O)cc32)cc1 (centres undefined) [HIGENAMINE]
inhibition at 1 h, 10 µM (MAO-A [17]): < 15% | inhibition at 1 h, 10 µM (MAO-B [18]): < 15%

O=C(c1ccc(OCCN2CCCCC2)cc1)c1c(-c2ccc(O)cc2)sc2cc(O)ccc12 [RALOXIFENE]
IC50 [19]: > 200 µM

O=C(O)[C@H](O)Cc1ccc(O)c(O)c1
Ki [20]: 7.11 µM

COc1cc2c(cc1OC)-c1c(C)c3ccc(OC)c(OC)c3c[n+]1CC2 [DEHYDROCORYDALINE]
IC50 [9]: 2.44 µM

CSCC[C@H](NC(=O)[C@@H](NC(=O)[C@H](CCCNC(=N)N)NC(=O)[C@H](C)N)[C@@H](C)O)C(=O)N[C@@H](CCC(N)=O)C(=O)N[C@H](C(=O)N[C@@H](C)C(=O)N[C@@H](CCCNC(=N)N)C(=O)N[C@@H](CCCCN)C(=O)N[C@@H](CO)C(=O)N[C@H](C(=O)O)[C@@H](C)O)[C@@H](C)O
Kd [21]: 140 µM

CC(=O)Nc1ccc(S(=O)(=O)N[C@H]2CO[C@H]3[C@@H]2OC[C@@H]3Nc2nccc(-c3cccc(F)c3)n2)cc1
Kd [7]: 16.3 µM | Kd [8]: 26.7 µM

CC(C)(C)OC(=O)N1CCN(C(=S)SCC(=O)Nc2ccc(C(=O)/C=C/c3ccccc3F)cc2)CC1
IC50 (KE-37): 3.64 µM | IC50 (HAL-01): 1.1 µM | IC50 (MOLT-4): 0.87 µM | IC50 (P30-OHK): 3.85 µM | IC50 [22]: 20 µM | IC50 (LC4-1): 2.73 µM | IC50 (SUP-B15): 1.87 µM

CCCC(=O)NC(c1ccc(N(CC)CC)cc1)c1cc(Cl)c2cccnc2c1O (centres undefined)
IC50 [3]: 0.0039 µM

O=c1c(-c2ccc(O)cc2)coc2c([C@@H]3O[C@H](CO[C@@H]4OC[C@@H](O)[C@H](O)[C@H]4O)[C@@H](O)[C@H](O)[C@H]3O)c(O)ccc12
Ki [20]: 7.46 µM

CCOC(=O)C(c1cc(OC)c(OC)cc1O)N1CCOCC1 (centres undefined)
IC50 [3]: 0.296 µM

CC1(C)C(N[C@@H]2C[C@H]2c2ccccc2)CCC1N[C@@H]1C[C@H]1c1ccccc1 (some centres undefined)
IC50 [23]: 9.41 µM | IC50 [24]: 4.8 µM | IC50 [25]: 0.00729 µM

CN1CCN(C(=O)NC2CC2c2cc(F)cc(F)c2OCc2ccccc2)CC1 (centres undefined)
Ki [26]: > 250 µM | Ki [27]: 0.37 µM | Ki [28]: > 250 µM | Ki [29]: > 250 µM
